Key:
[1] = system: NASH model mice (STAM mouse); test: NASH model (STAM) mice, oral administration once a day for 28 days; liver tissue images, liver weight, serum and hepatic markers, NAS; type: in vivo; parameters: TNF-alpha, Score showing the degree of inflammation / IFN-gamma, Score showing the degree of inflammation: scale not given here; settings: for serum ferritin level: oral 28 days (FIG. 7); for TNF-alpha, Score showing the degree of inflammation: oral 28 days (FIG. 11); for IFN-gamma, Score showing the degree of inflammation: oral 28 days (FIG. 12); for hepatic fibrosis area ratio: oral 28 days (FIG. 13); for weight ratio of liver to body / serum ALT level / hepatic TG (hepatic triglyceride) / MCP-1 (monocyte chemotactic protein-1) / NAS (NAFLD activity score) / hepatic ballooning score / lobular inflammation score / steatosis score / NAS (NAFLD activity score) improvement, in words: oral 28 days; for weight ratio of liver to body: after administration (FIG. 5); for serum ALT level: after administration (FIG. 6); for hepatic TG (hepatic triglyceride): after administration (FIG. 9); for MCP-1 (monocyte chemotactic protein-1): after administration (FIG. 10); for NAS (NAFLD activity score): full score of 8 (FIG. 17); for hepatic ballooning score: score of 0 to 2 (FIG. 14); for lobular inflammation score: score of 0 to 3 (FIG. 15); for steatosis score: score of 0 to 3 (FIG. 16); for liver weight: oral once a day, 28 days, polaprezinc 45.2 mg/kg, sodium selenite 150 μg/kg, after administration (FIG. 4); for NAS (NAFLD activity score) improvement, in words: comparison between groups
Protocol: An internationally prized and recognized STAM (registered trademark) mouse was used for the research model of non-alcoholic fatty liver disease (NAFLD) and/or non-alcoholic steatohepatitis (NASH). A STAM (registered trademark) mouse is an animal model of non-alcoholic steatohepatitis prepared by administrating inflammation inducer of the pancreas (patent literature 2) which Stelic Institute & Co. developed and is publically informed as patentee, and many research reports using this animal model has already been made domestic and overseas.
The NASH model mice were assigned to four groups (eight mice per group) by body weight stratification random sampling method so that the average body weight is equal. The four groups are the zinc preparation (polaprezinc)+selenium preparation (sodium selenite) group, zinc preparation (polaprezinc) alone group, selenium preparation (sodium selenite) alone group, and control group. The route of administration was oral administration, and the period of administration was 28 days.
The number of administration was once a day. The dosage was 10 ml/kg body weight and was administrated using an oral zonde.
The dosages of each group are shown below.
Blood was collected from the heart under ether anesthesia at the end of administration. The obtained serum was divisionally injected into a tube. It was euthanized by exsanguination after blood sampling and the photograph of the extracted liver was taken. For all necropsied animals, treatment was made to divide the liver into four respective lobes (right/left medial lobe, left lateral lobe, right lobe, caudate lobe), wherein especially the left lateral lobe was treated for three parts taking two each of its six equally divided parts, and the tissue image was analyzed.
The evaluation for non-alcoholic fatty liver disease (NAFLD) and/or non-alcoholic steatohepatitis (NASH) improvement was evaluated by the following items.
NAS (NAFLD activity score) is used to evaluate non-alcoholic fatty liver disease (NAFLD). NAS is advocated by Nonalcoholic⋅Steato⋅hepatitis⋅Clinical⋅Research⋅Network (nonpatent literature 2). […] The activity of NAS is evaluated by putting the three of steatosis, lobular inflammation, and Ballooning degeneration into scores. It is shown in full score of 8 in total, score of 0 to 3 for steatosis and lobular inflammation, and score of 0 to 2 for hepatic Ballooning degeneration. Steatosis, lobular inflammation, hepatic Ballooning degeneration, and NAS (NAFLD activity score) was compared and examined for the four groups, the group of the combination drug of zinc preparation (polaprezinc) and selenium preparation (sodium selenite), the control group, the zinc preparation (polaprezinc) alone group, and the selenium preparation (sodium selenite) alone group.

hepatic fibrosis = settings: from patent literature 1, nonpatent literature 3 and 5; cited from earlier work

SMILES	serum ferritin level [1]	TNF-alpha, Score showing the degree of inflammation [1]	IFN-gamma, Score showing the degree of inflammation [1]	hepatic fibrosis area ratio [1] [%]	weight ratio of liver to body [1] [%]	serum ALT level [1] [IU/L]	hepatic TG (hepatic triglyceride) [1] [mg/dL]	MCP-1 (monocyte chemotactic protein-1) [1]	NAS (NAFLD activity score) [1]	hepatic ballooning score [1]	lobular inflammation score [1]	steatosis score [1]	liver weight [1]	F4/80 (macrophage) antigen expression level in stained liver tissue ([1]; oral 28 days (FIG. 2-1, 2-2))	NAS (NAFLD activity score) improvement, in words [1]	NAS (NAFLD activity score) improvement, in words ([1]; listed as Zinc preparation (polaprezinc))	suppression of hepatic fibrosis (prior reports) (hepatic fibrosis)
O=[Se](O)O [selenium preparation (sodium selenite), sodium selenite]	5,251 ng/ml	13.23	8.02	1.18	7.43	54.6	57.3	3.2	3.54	1.23	1.46	0.85	1,385.2 mg				
NCCC(=O)[N-][C@@H](Cc1c[nH]cn1)C(=O)[O-].[Zn+2] [zinc preparation (polaprezinc), L-carnosine zinc salt]	5,740 ng/ml	12.80	7.95	1.16	7.49	58.8	64.2	3.3	3.62	1.38	1.38	0.85	1,389 mg	suppresses the expression level significantly compared with the control	significantly declined NAS (NAFLD activity score) compared with the control group	showed improvement compared to the control group	suppresses hepatic fibrosis
